Where two headings read alike, the source gives them in different places.
Assays:
Assay type in all cases: cell-based
hTRPV1 = target: T1, hTRPV1 (Homo sapiens, UniProt Q8NER1); experiment: Fura-2 AM ratiometric Ca2+ imaging of HEK293T cells transiently expressing hTRPV1 (responding cells %); conditions: for activation of hTRPV1 (cytosolic Ca2+ influx, responding cells): extract 300 μg/mL, capsaicin 0.1 μM, ten compounds at 0.1-1 mM; for inhibition of Ca2+ responses induced by the A.rugosa extract in hTRPV1 cells: antagonist: RR 30 μM, CPZ 5 μM, HEK293T cells transiently expressing hTRPV1
T1 construct: host or cells: HEK293T cells, transient transfection with pEAK10-hTRPV1
Procedure: HEK293T cells cultured at 37°C in DMEM supplemented with 10% FBS and 1% penicillin/streptomycin (Invitrogen) were seeded onto 100 mm dishes and transfected with the hTRPV1 expression plasmid using Lipofectamine 2000. After 6 h, the transfected cells were seeded onto 96-well black-wall plates for 24 h prior to their use in experiments.
(§1) Non-hTRPA1-expressing Flp-In 293 cells, HEK293T cells, hTRPA1-Flp-In 293 stable cells, and HEK293T cells transiently expressing hTRPV1 were seeded onto 96-well black-wall imaging plates (BD Falcon Labware, Franklin Lakes, NJ, USA) for 24 h prior to their use in experiments. After 24 h, the cells were washed with assay buffer (130 mM NaCl, 10 mM glucose, 5 mM KCl, 2 mM CaCl2, 1.2 mM MgCl2, and 10 mM HEPES [pH 7.4]) and loaded with the Ca^2+ indicator dye Fura-2AM (5 μM; Invitrogen) in assay buffer for 30 min at 27°C. The cells were rinsed with assay buffer, incubated in 100 μl of assay buffer for >10 min, and then treated with ligand by adding 100 μl of the ligand solution. […] The fluorescence intensity of Fura-2 AM excited at 340 and 380 nm was measured at 510 nm using a computer-controlled filter changer (Lambda DG4; Sutter Instrument Co., San Rafael, CA, USA), an Andor Luca CCD camera (Andor Technology, Belfast, Northern Ireland), and an inverted fluorescence microscope (IX-71; Olympus, Tokyo, Japan). Images were recorded at 3 s intervals and were analyzed using MetaFluor software (Molecular Devices, Sunnyvale, CA, USA).

hTRPA1 [1] = target: T2, hTRPA1 (Homo sapiens, UniProt O75762); experiment: Whole-cell patch clamp recording of hTRPA1 currents; conditions: for induction of hTRPA1 inward currents: holding -70 mV, 30 s application, hTRPA1-Flp-In 293 stable cells and HEK293T cells transiently expressing hTRPA1, AITC 30 μM, 4-allylanisole 3 mM, p-anisaldehyde 6 mM, L-carveol 1.8 mM, methyl eugenol 900 μM, trans-p-methoxycinnamaldehyde 1 mM
T2 construct: expressed in transfected cells
Procedure: For the transient expression of hTRPA1, HEK293T cells (ATCC: CRL-11268) cultured at 37°C in DMEM supplemented with 10% FBS and 1% penicillin/streptomycin (Invitrogen) were transfected using Lipofectamine 2000 (Invitrogen) and 0.1μg of cDNA encoding tetrameric red fluorescence protein (DsRed) was co-transfected as a marker for successfully transfected cells. The hTRPA1expressing plasmid was generously given to us from Kyeongjin Kang (Sungkyunkwan University School of Medicine, Suwon, Korea). The next day, cells were plated onto poly-L-lysine (0.1 mg/ml, Sigma-Aldrich) coated chips, and the fluorescent cells were studied within 2 days after transfection.
Cells were voltage clamped in the whole-cell recording configuration at room temperature (22–25°C). The resistance of electrodes pulled from glass micropipette capillaries (Sutter Instrument Co., Novato, CA, USA) was 2–2.5 MΩ with >60% compensation of series resistance errors. Fast and slow capacitances were compensated before application of the test pulse. Membrane currents were recorded using a HEKA EPC-10 amplifier with pulse software (HEKA Elektronik, Lambrecht, Germany). The pipette solution used for recording hTRPA1 currents contained 140 mM KCl, 5 mM MgCl2, 10 mM HEPES, 0.1 mM 1,2-bis(2-aminophenoxy)ethane-N,N,N',N'-tetraacetic acid (BAPTA), 3 mM Na2ATP, and 0.1 mM Na3GTP (adjusted to pH 7.4 with KOH). The external Ringer’s solution used for recording hTRPA1 currents contained 160 mM NaCl, 5 mM KCl, 1 mM MgCl2, 2 mM EGTA, 10 mM glucose, and 10 mM HEPES (adjusted to pH 7.4with NaOH). hTRPA1 currents were recorded by holding the cell at -70 mV. The following reagents were obtained: BAPTA, Na2ATP, Na3GTP, and EGTA (Sigma-Alrich), HEPES (Calbiochem, San Diego, CA, USA), and other chemicals (Merck, Township, NJ, USA).

hTRPA1 [2] = target: T2, hTRPA1; experiment: Cytosolic Ca2+ measurement with Fluo-4 AM on a fluorescence plate reader (FlexStation III), ΔRFU dose-response; conditions: for Hill slope of Ca2+ concentration-response curve: n = 7; for agonist type at hTRPA1 (full / partial): judged from maximum ΔRFU versus AITC
Procedure: Flp-In 293 cells stably expressing hTRPA1 [22] were a gift from Dr. Takumi Misaka (University of Tokyo, Tokyo, Japan). The hTRPA1-expressing cells were maintained in Dulbecco’s modified Eagle’s medium (DMEM; Invitrogen, Carlsbad, CA, USA) containing 10% fetal bovine serum (FBS; Invitrogen) and 0.2% hygromycin B (Invitrogen). […] All cells were incubated at 37°C in a humidified atmosphere containing 5% CO2. Cultured hTRPA1-expressing cells and Flp-In 293 cells were seeded onto 96-well black-wall plates for 24 h prior to their use in experiments.
hTRPA1-Flp-In 293 stable cells were seeded onto 96-well black-wall CellBIND Surface plates (Corning Inc., Corning, NY, USA) 24h before the assay. The cells were loaded with 5 μM Fluo-4AM (Molecular Probes, Eugene, OR, USA) in assay buffer for 30 min at 27°C, washed with assay buffer, and incubated for 15 min at 27°C. Subsequently, the cytosolic Ca^2+ concentration was measured using a Flex StationIII microplate reader (Molecular Devices). Sample solutions were loaded after a 17s baseline scan and ligand-induced changes in fluorescence intensity (excitation, 486 nm; emission, 516 nm; cutoff, 515 nm) were monitored at 2.1s intervals for 120s. The response of each well is represented as the change in relative fluorescence units (ΔRFU), which was defined as the maximum fluorescence value minus the minimum fluorescence value. All experiments were performed at least three times. Plots of amplitude versus ligand concentration were fitted using Hill’s equations.
Dose-response analyses were carried out with GraphPad Prism (GraphPad Software Inc., San Diego, CA, USA). The data represent the mean ± SEM.

hTRPA1 [3] = target: T2, hTRPA1; experiment: Fura-2 AM ratiometric Ca2+ imaging of hTRPA1-Flp-In 293 stable cells; conditions: for activation of hTRPA1 (cytosolic Ca2+ influx): extract 300 μg/mL, AITC 30 μM, 4-allylanisole 1 mM; for activation of hTRPA1 (cytosolic Ca2+ influx) / block of Ca2+ influxes induced by the five active compounds in hTRPA1 cells: p-anisaldehyde 1 mM, L-carveol 300 μM, trans-p-methoxycinnamaldehyde 100 μM, methyl eugenol 300 μM; for block of Ca2+ influxes induced by the five active compounds in hTRPA1 cells / inhibition of Ca2+ responses induced by AITC and the A.rugosa extract in hTRPA1 cells: antagonist: RR 30 μM, HC-030031 100 μM; for block of Ca2+ influxes induced by the five active compounds in hTRPA1 cells: agonists 4-allylanisole 1 mM; for inhibition of Ca2+ responses induced by AITC and the A.rugosa extract in hTRPA1 cells: hTRPA1-Flp-In 293 stable cells
Procedure: Flp-In 293 cells stably expressing hTRPA1 [22] were a gift from Dr. Takumi Misaka (University of Tokyo, Tokyo, Japan). The hTRPA1-expressing cells were maintained in Dulbecco’s modified Eagle’s medium (DMEM; Invitrogen, Carlsbad, CA, USA) containing 10% fetal bovine serum (FBS; Invitrogen) and 0.2% hygromycin B (Invitrogen). Flp-In 293 cells (Invitrogen: R750-07) were maintained in DMEM containing 10% FBS. All cells were incubated at 37°C in a humidified atmosphere containing 5% CO2. Cultured hTRPA1-expressing cells and Flp-In 293 cells were seeded onto 96-well black-wall plates for 24 h prior to their use in experiments.
as §1

[4] = hTRPA1-Flp-In 293 stable cells, Fluo-4 AM
[5] = hTRPA1-Flp-In 293 stable cells, Fluo-4 AM, ΔRFU, Hill fit, seven independent experiments, mean ± SEM, read-out: EC50 of Ca2+ response

T1 sequence (Q8NER1 whole entry): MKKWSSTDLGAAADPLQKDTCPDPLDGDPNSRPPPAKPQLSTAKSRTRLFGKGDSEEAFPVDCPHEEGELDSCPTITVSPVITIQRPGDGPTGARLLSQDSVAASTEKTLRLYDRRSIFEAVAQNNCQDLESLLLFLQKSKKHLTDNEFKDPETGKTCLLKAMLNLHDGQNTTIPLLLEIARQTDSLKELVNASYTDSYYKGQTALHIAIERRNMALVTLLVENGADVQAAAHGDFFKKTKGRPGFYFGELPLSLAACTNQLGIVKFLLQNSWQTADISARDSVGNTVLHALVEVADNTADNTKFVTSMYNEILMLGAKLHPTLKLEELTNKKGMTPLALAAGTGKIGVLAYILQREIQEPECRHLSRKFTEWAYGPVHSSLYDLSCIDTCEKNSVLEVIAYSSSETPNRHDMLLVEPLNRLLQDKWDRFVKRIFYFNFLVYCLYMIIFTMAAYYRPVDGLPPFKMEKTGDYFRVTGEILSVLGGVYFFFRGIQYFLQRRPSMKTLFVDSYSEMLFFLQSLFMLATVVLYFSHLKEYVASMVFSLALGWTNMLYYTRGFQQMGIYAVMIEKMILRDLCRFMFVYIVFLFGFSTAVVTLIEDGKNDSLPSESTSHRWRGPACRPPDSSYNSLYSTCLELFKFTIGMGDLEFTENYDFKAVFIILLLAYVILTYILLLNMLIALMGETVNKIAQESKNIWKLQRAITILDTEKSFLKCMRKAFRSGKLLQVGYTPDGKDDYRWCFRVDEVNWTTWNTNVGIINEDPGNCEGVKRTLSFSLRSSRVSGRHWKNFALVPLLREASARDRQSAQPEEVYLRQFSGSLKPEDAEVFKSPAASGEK
T2 sequence (O75762 whole entry): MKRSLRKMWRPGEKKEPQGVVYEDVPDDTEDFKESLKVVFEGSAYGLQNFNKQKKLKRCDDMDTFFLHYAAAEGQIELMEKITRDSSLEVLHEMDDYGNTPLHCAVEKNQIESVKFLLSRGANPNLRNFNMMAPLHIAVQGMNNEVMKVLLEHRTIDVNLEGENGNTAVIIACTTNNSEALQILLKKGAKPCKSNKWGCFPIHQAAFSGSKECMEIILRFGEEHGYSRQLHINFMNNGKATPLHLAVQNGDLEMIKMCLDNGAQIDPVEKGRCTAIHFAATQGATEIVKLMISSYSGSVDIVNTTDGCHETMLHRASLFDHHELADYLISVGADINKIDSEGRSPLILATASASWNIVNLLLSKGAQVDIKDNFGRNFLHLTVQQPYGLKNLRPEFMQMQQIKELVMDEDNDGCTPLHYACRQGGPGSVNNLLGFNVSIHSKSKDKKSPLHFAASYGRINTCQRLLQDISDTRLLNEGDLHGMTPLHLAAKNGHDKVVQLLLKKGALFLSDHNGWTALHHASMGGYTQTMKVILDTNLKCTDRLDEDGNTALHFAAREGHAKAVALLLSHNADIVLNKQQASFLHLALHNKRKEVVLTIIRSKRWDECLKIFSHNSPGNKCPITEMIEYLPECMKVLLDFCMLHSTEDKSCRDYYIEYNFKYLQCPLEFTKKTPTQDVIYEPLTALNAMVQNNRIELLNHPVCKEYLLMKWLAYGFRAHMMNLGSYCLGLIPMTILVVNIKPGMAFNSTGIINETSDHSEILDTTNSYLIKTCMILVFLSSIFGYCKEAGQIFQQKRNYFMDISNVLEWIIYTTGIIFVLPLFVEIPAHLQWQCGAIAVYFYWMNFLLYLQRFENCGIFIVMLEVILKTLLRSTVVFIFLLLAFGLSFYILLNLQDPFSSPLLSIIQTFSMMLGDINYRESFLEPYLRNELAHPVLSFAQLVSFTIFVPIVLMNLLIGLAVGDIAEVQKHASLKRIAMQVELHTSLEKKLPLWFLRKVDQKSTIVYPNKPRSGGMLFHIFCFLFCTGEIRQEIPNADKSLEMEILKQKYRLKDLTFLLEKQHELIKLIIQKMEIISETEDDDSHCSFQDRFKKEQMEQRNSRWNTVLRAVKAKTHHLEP

| SMILES | activation of hTRPV1 (cytosolic Ca2+ influx, responding cells) (hTRPV1) | induction of hTRPA1 inward currents (hTRPA1 [1]) | efficacy (maximum ΔRFU) relative to that of AITC (hTRPA1 [2]; [4]) | Hill slope of Ca2+ concentration-response curve (hTRPA1 [2]; [4]) | EC50 (hTRPA1 [2]; [5]) | agonist type at hTRPA1 (full / partial) (hTRPA1 [2]) | activation of hTRPA1 (cytosolic Ca2+ influx) (hTRPA1 [3]) | inhibition of Ca2+ responses induced by the A.rugosa extract in hTRPV1 cells (hTRPV1) | block of Ca2+ influxes induced by the five active compounds in hTRPA1 cells (hTRPA1 [3]) | inhibition of Ca2+ responses induced by AITC and the A.rugosa extract in hTRPA1 cells (hTRPA1 [3]) | EC50 (hTRPA1 [2]) | block of hTRPA1 currents evoked by AITC and five compounds (hTRPA1 [1]; 30 μM RR, pre-incubation 30 s before second application of compounds) |
| --- | --- | --- | --- | --- | --- | --- | --- | --- | --- | --- | --- | --- |
| COc1cc(CNC(=O)CCCC/C=C/C(C)C)ccc1O [capsaicin, reference compound] | significantly stimulated |  |  |  |  |  |  |  |  |  |  |  |
| C=CCc1ccc(OC)cc1 [4-allylanisole] | did not activate hTRPV1 | induced inward currents | 59.9% | 1.7±0.3 | 1540 ± 316 µM | partial agonists | activated hTRPA1 |  |  |  |  |  |
| COc1ccc(C=O)cc1 [p-anisaldehyde] | did not activate hTRPV1 | induced inward currents | 64.2% | 2.0±0.5 | 546 ± 73 µM | partial agonists | activated hTRPA1 |  |  |  |  |  |
| Oc1cc2c(cc1O)CN(C(=S)NCCc1ccc(Cl)cc1)CCC2 [CPZ, capsazepine, reference compound] |  |  |  |  |  |  |  | inhibited |  |  |  |  |
| CC(C)c1ccc(NC(=O)Cn2cnc3c2c(=O)n(C)c(=O)n3C)cc1 [HC-030031, reference compound] |  |  |  |  |  |  |  |  | mostly blocked | inhibited |  |  |
| C=C(C)[C@@H]1CC=C(C)C(O)C1 (stereo partly drawn) [L-carveol] | did not activate hTRPV1 | induced inward currents |  | 2.9±0.5 |  | almost full agonists | activated hTRPA1 |  |  |  | 189 ± 26.8 µM |  |
| C=CCc1ccc(OC)c(OC)c1 [methyl eugenol] | did not activate hTRPV1 | induced inward currents |  | 1.4±0.3 | 160 ± 21.9 µM | almost full agonists | activated hTRPA1 |  |  |  |  |  |
| C=CCN=C=S [AITC, allyl isothiocyanate, reference compound] |  | induced inward currents |  | 1.6±0.5 |  |  | successfully activated |  |  |  |  |  |
| N.N.N.N.N.N.N.N.N.N.N.N.N.N.[Cl-].[Cl-].[Cl-].[Cl-].[Cl-].[Cl-].[O-2].[O-2].[Ru+3].[Ru+3].[Ru+4] [RR, ruthenium red, reference compound] |  |  |  |  |  |  |  | inhibited | mostly blocked | inhibited |  | completely blocked |
| COc1ccc(/C=C/C=O)cc1 [trans-p-methoxycinnamaldehyde] | did not activate hTRPV1 | induced inward currents |  | 2.2±0.7 | 29.8 ± 14.9 µM | almost full agonists | activated hTRPA1 |  |  |  |  |  |

From PMC4433173, “Five hTRPA1 Agonists Found in Indigenous Korean Mint, Agastache rugosa” (PLoS ONE, 2015)
